# Reference: ChEMBL document CHEMBL1158450, “A small-molecule inhibitor of Nipah virus envelope protein-mediated membrane fusion” (J Med Chem, 2009)
# Activity calls are given as the source filed them. The calls are words filed in the database; no cut-off is given here.
# Tests used:
# [1] = test system: Vero; type: cell-based; conditions: Measles morbillivirus, 10 to 200 uM
# [2] = target: T1, Glycoprotein G (Henipavirus nipahense) (UniProt Q9IH62); type: cell-based; conditions: Vero, 10 to 200 uM
# T1 sequence (whole entry): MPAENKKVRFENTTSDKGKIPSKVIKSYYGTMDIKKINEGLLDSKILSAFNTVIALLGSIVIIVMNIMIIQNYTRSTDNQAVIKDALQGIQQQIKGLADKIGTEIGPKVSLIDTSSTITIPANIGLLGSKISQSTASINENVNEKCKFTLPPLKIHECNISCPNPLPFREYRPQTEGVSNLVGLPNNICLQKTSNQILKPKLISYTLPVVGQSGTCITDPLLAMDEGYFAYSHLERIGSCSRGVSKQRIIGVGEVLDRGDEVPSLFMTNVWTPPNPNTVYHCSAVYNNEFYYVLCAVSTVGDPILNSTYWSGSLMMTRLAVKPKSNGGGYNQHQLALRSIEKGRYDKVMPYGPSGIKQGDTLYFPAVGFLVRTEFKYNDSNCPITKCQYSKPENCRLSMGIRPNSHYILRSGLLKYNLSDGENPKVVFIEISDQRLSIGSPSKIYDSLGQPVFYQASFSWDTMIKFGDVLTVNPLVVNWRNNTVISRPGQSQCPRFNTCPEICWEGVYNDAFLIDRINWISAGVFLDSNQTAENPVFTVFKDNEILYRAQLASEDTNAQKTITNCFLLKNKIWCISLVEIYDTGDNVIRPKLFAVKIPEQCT
# [3] = test system: Vero; test: Cytotoxicity against african green monkey Vero cells at 10 to 200 uM after 16 hrs by MTT assay; type: cell-based; conditions: chlorocebus sabaeus
# [4] = (§1) Cytotoxicity against african green monkey Vero cells after 16 hrs by MTT assay; type: cell-based, Chlorocebus sabaeus; conditions: chlorocebus sabaeus, Vero cells
# [5] = test system: Nipah virus; test: Inhibition of Nipah virus-mediated cell fusion infected in african green monkey Vero cells assessed as reduction in virus-induced syncytium formation after 24 hrs relative to control; type: functional, organism-based; conditions: Henipavirus nipahense
# [6] = target: T2, Glycoprotein G (Henipavirus nipahense, UniProt Q9IH62); type: cell-based; conditions: vero
# T2 sequence (Q9IH62 whole entry): T1 sequence (whole entry)
# [7] = Selectivity index, CC50 for african green monkey Vero cells to EC50 for Measles virus hemagglutininin/F-mediated cell-cell fusion; type: toxicity, cell-based; conditions: read-out: Ratio CC50/EC50
# [8] = test system: Vero; test: as §1; type: cell-based, Chlorocebus sabaeus; conditions: Chlorocebus sabaeus, Vero, 16 h
Structure (SMILES),Activity [1],Activity [2],Activity [3],CC50 at 16 h [4] [µM],also measured
CCn1cc(C(=O)NCC2CC2)c(=O)c2cc(F)ccc21,inactive,inactive,Not Active,–,–
CCn1cc(C(=O)NCC2CC2)c(=O)c2cc(C(F)(F)F)ccc21,inactive,inactive,Not Active,–,–
CCn1cc(C(=O)NCc2ccc(OC)cc2)c(=O)c2cc(F)c(Cl)cc21,inactive,inactive,Not Active,–,–
CCOC(=O)N1CCN(c2cc3c(cc2F)c(=O)c(C(=O)NCc2ccc(Cl)cc2Cl)cn3C2CC2)CC1,–,–,–,15,–
CCn1cc(C(=O)Nc2ccccc2CO)c(=O)c2ccc(C(F)(F)F)cc21,inactive,inactive,Not Active,–,–
CCn1cc(C(=O)NCc2ccccn2)c(=O)c2cc(C(F)(F)F)ccc21,inactive,inactive,Not Active,–,–
CCn1cc(C(=O)NCc2ccc(N)cc2)c(=O)c2cc(F)ccc21,inactive,inactive,Not Active,–,–
NC(=O)C1CCN(c2cc3c(cc2F)c(=O)c(C(=O)O)cn3C2CC2)CC1,inactive,inactive,Not Active,–,–
NC(=O)C1CCN(c2cc3c(cc2F)c(=O)c(C(=O)NCc2ccc(Cl)cc2Cl)cn3C2CC2)CC1,–,–,–,> 20,Activity [5]: Dose-dependent effect
CCn1cc(C(=O)Nc2ccc(F)c(Cl)c2)c(=O)c2ccc(C(F)(F)F)cc21,–,–,–,> 20,EC50 [6]: Not Active
CCn1cc(C(=O)NCc2ccc(Cl)cc2)c(=O)c2ccc(C(F)(F)F)cc21,–,–,–,> 20,selectivity ratio [7]: > 10
Nc1ccc2oc(Cc3ccccc3)nc2c1,–,–,–,–,EC50 [8]: 8 µM; Activity [5]: Dose-dependent effect; selectivity ratio [7]: 20
CCOC(=O)C1CCN(c2cc3c(cc2F)c(=O)c(C(=O)O)cn3CC)CC1,inactive,inactive,Not Active,–,–
C=CCN1[C@@H](c2ccc([N+](=O)[O-])cc2)C(C(=O)OCC)=C(O)C(C(=O)OCC)[C@@H]1c1ccc([N+](=O)[O-])cc1 (some centres not stated),–,–,–,> 20,–
CCn1cc(C(=O)NCc2ccc(OC)cc2)c(=O)c2cc(C(F)(F)F)ccc21,inactive,inactive,Not Active,–,–
CCOC(=O)C1CCN(c2cc3c(cc2F)c(=O)c(C(=O)NCc2ccc(Cl)cc2Cl)cn3CC)CC1,–,–,–,10,Activity [5]: Dose-dependent effect
CCn1cc(C(=O)NCc2ccc(N)cc2)c(=O)c2cc(C(F)(F)F)ccc21,inactive,inactive,Not Active,–,–
CCn1cc(C(=O)NCc2ccccn2)c(=O)c2cc(F)ccc21,inactive,inactive,Not Active,–,–
CCOC(=O)N1CCN(c2cc3c(cc2F)c(=O)c(C(=O)NCc2ccc(Cl)cc2Cl)cn3CC)CC1,–,–,–,> 20,–
